From patent publication US20210347709A1, “RADIOFLUORINATED GPC3-BINDING PEPTIDES FOR PET IMAGING OF HEPATOCELLULAR CARCINOMA” (University of Southern California, priority 2020, published 2021)

Key:
Assay type in all cases: in vivo, nude mice
[1] = MicroPET/CT imaging and biodistribution, HepG2 tumor model; details: both sexes, BALB/c nude, mouse, iv, 5.55 MBq, total radioactivity; for tissue to tissue ratio at 1 h / tissue to tissue ratio at 0.5 h / tissue to tissue ratio at 2 h: HepG2 (GPC3+) tumor bearing mice; for tissue to tissue ratio at 1 h / tissue uptake at 1 h: 60 min; for tissue to tissue ratio at 0.5 h / tissue uptake at 0.5 h: 30 min; for tissue to tissue ratio at 2 h / tissue uptake at 2 h: 120 min; for tissue uptake at 0.5 h / tissue uptake at 1 h / tissue uptake at 2 h: HepG2 (GPC3+) tumor model, PET
Description: (§1) MicroPET/CT Imaging and Biodistribution. MicroPET/CT scans were carried out using a Siemens Inveon PET/CT scanner (Siemens, Germany). Tumor-bearing mice (n=3/group) were intravenously injected with 5.55 MBq of Al[^18F]F-GP2076 or Al[^18F]F-GP2633 under isoflurane anesthesia. A ten-minute static PET scan for each animal was acquired at 30, 60, and 120 min after the injection. 3-Dimensional ordered subset expectation maximization (3D-OSEM) algorithm was used for the PET reconstruction, and CT was applied for attenuation correction. Detailed procedures for the microPET/CT imaging and biodistribution are provided in ESM.
(§2) All animal experiments were conducted according to the guideline of the Nanfang Hospital Animal Ethics Committee at the Southern Medical University. Male or female BALB/c nude mice (about 4-6 weeks old) were obtained from the Laboratory Animal Center at Southern Medical University. The HepG2 and McA-RH7777 HCC xenografts were established by subcutaneous injection of 1×10^6 tumor cells into the left shoulder of nude mice. The animals were used for in vivo studies when the tumors reached a size of 0.5-1 cm in diameter (4-6 weeks after inoculation).
(§3) Inveon Research Workplace (IRW) 3.0 software (Siemens, Germany) was used to measure the regions of interest (ROIs) determined by superimposing the ellipsoid volume of interest (VOI) on the target tissues. The radioactivity concentrations were measured by the mean pixel intensity within each VOI and converted to dose/ml using a calibration constant. Assuming the tissue density of 1 g/ml, the ROI was then converted to dose per gram and normalized as the percent injected dose per gram (% ID/g). Tumor-to-nontarget uptake ratios, including tumor-to-muscle (T/M), tumor-to-liver (T/L), and tumor-to-kidneys (T/K) ratios, were calculated by dividing the radioactivity uptake in tumor by that in the corresponding normal tissue or organ.

[2] = MicroPET/CT imaging and biodistribution, McA-RH7777 tumor model; details: both sexes, BALB/c nude, mouse, iv, 5.55 MBq, total radioactivity; for tissue to tissue ratio at 0.5 h / tissue to tissue ratio at 1 h / tissue to tissue ratio at 2 h: McA-RH7777 (GPC3−) tumor bearing mice; for tissue to tissue ratio at 0.5 h / tissue uptake at 0.5 h: 30 min; for tissue to tissue ratio at 1 h / tissue uptake at 1 h: 60 min; for tissue uptake at 0.5 h / tissue uptake at 1 h / tissue uptake at 2 h: McA-RH7777 (GPC3−) tumor model, PET; for tissue uptake at 2 h / tissue to tissue ratio at 2 h: 120 min
Description: as §1, §2, §3

[3] = system: GPC3-negative McA-RH7777 tumor; experiment: as above; details: for Tumor-to-muscle (T/M) uptake ratio: McA-RH7777 (GPC3−) tumor bearing mice; for Kidneys uptake / Liver uptake / Tumor uptake: McA-RH7777 (GPC3−) tumor model, PET; for Tumor uptake: decay-corrected
Description: as §1, §2, §3

[4] = HepG2 tumor / liver, read-out: Tumor-to-liver (T/L) uptake ratio
[5] = HepG2 tumor / muscle, read-out: Tumor-to-muscle (T/M) uptake ratio
[6] = intestine, read-out: Intestinal uptake
[7] = decay-corrected, read-out: Tumor uptake
[8] = kidneys, read-out: Kidneys uptake
[9] = muscle, read-out: Muscle uptake
[10] = tumor / kidneys, read-out: Tumor-to-kidneys (T/K) uptake ratio
[11] = McA-RH7777 tumor / muscle, read-out: Tumor-to-muscle (T/M) uptake ratio
[12] = tumor / liver, read-out: Tumor-to-liver (T/L) uptake ratio

## CC(C)C[C@H](NC(=O)[C@H](CCCNC(=N)N)NC(=O)[C@H](CC(N)=O)NC(=O)[C@H](CC(=O)O)NC(=O)[C@H](CCCNC(=N)N)NC(=O)CNC(=O)CNC(=O)CNC(=S)Nc1ccc(CC2CN(CC(=O)O)CCN(CC(=O)O)CCN2CC(=O)O)cc1)C(=O)N[C@@H](CC(N)=O)C(=O)N[C@H](C(=O)NCC(=O)NCC(=O)N[C@H](C(=O)N[C@@H](Cc1ccc(O)cc1)C(=O)N[C@@H](Cc1ccccc1)C(=O)N[C@@H](CC(C)C)C(=O)N[C@H](C(=O)N[C@H](C(=O)N[C@@H](CCCNC(=N)N)C(=O)N[C@@H](CCC(N)=O)C(=O)O)[C@@H](C)O)[C@@H](C)O)[C@@H](C)O)C(C)C (single isomer, unassigned) [Al[^18F]F-GP2633]
[1]; HepG2 tumor / kidneys, read-out: Tumor-to-kidneys (T/K) uptake ratio
  tissue to tissue ratio at 1 h: 0.09 ± 0.01
[1]; [4]
  tissue to tissue ratio at 0.5 h: 1.77 ± 0.2
  tissue to tissue ratio at 1 h: 2 ± 0.18
  tissue to tissue ratio at 2 h: 1.28 ± 0.25
[1]; [5]
  tissue to tissue ratio at 0.5 h: 9.11 ± 0.79
  tissue to tissue ratio at 1 h: 12.2 ± 0.62
  tissue to tissue ratio at 2 h: 6.2 ± 1.8
[1]; bone, read-out: Bone uptake
  tissue uptake at 0.5 h: 0.47 %ID/g
  tissue uptake at 1 h: 0.43 %ID/g
  tissue uptake at 2 h: 0.55 %ID/g
[1]; brain, read-out: Brain uptake
  tissue uptake at 0.5 h: 0.1 %ID/g
  tissue uptake at 1 h: 0.11 %ID/g
  tissue uptake at 2 h: 0.22 %ID/g
[1]; heart, read-out: Heart uptake
  tissue uptake at 0.5 h: 1.04 %ID/g
  tissue uptake at 1 h: 0.91 %ID/g
  tissue uptake at 2 h: 0.37 %ID/g
[1]; [6]
  tissue uptake at 0.5 h: 1.09 %ID/g
  tissue uptake at 1 h: 1.3 %ID/g
  tissue uptake at 2 h: 0.46 %ID/g
[1]; [7]
  tissue uptake at 0.5 h: 3.13 %ID/g
  tissue uptake at 1 h: 3.37 %ID/g
  tissue uptake at 2 h: 1.3 %ID/g
[1]; [8]
  tissue uptake at 0.5 h: 39.4 %ID/g
  tissue uptake at 1 h: 36.9 %ID/g
  tissue uptake at 2 h: 29.3 %ID/g
[1]; liver, read-out: Liver uptake
  tissue uptake at 0.5 h: 1.8 %ID/g
  tissue uptake at 1 h: 1.7 %ID/g
  tissue uptake at 2 h: 1.04 %ID/g
[1]; lung, read-out: Lung uptake
  tissue uptake at 0.5 h: 0.69 %ID/g
  tissue uptake at 1 h: 0.59 %ID/g
  tissue uptake at 2 h: 0.34 %ID/g
[1]; [9]
  tissue uptake at 0.5 h: 0.35 %ID/g
  tissue uptake at 1 h: 0.28 %ID/g
  tissue uptake at 2 h: 0.22 %ID/g
[1]; [10]
  tissue to tissue ratio at 0.5 h: 0.08 ± 0.01
  tissue to tissue ratio at 2 h: 0.04 ± 0.01
[2]; [11]
  tissue to tissue ratio at 0.5 h: 3.87 ± 1.97
  tissue to tissue ratio at 1 h: 6.2 ± 2.67
[2]; bone, read-out: Bone uptake
  tissue uptake at 0.5 h: 1.04 %ID/g
  tissue uptake at 1 h: 0.8 %ID/g
  tissue uptake at 2 h: 0.56 %ID/g
[2]; brain, read-out: Brain uptake
  tissue uptake at 0.5 h: 0.78 %ID/g
  tissue uptake at 1 h: 0.31 %ID/g
  tissue uptake at 2 h: 0.22 %ID/g
[2]; heart, read-out: Heart uptake
  tissue uptake at 0.5 h: 1.4 %ID/g
  tissue uptake at 1 h: 1 %ID/g
  tissue uptake at 2 h: 0.47 %ID/g
[2]; [6]
  tissue uptake at 0.5 h: 1.43 %ID/g
  tissue uptake at 1 h: 1.03 %ID/g
  tissue uptake at 2 h: 0.65 %ID/g
[2]; [7]
  tissue uptake at 0.5 h: 1.75 %ID/g
  tissue uptake at 1 h: 1.64 %ID/g
  tissue uptake at 2 h: 0.66 %ID/g
[2]; [8]
  tissue uptake at 0.5 h: 37.5 %ID/g
  tissue uptake at 1 h: 35.4 %ID/g
  tissue uptake at 2 h: 25.7 %ID/g
[2]; liver, read-out: Liver uptake
  tissue uptake at 0.5 h: 1.52 %ID/g
  tissue uptake at 1 h: 1.33 %ID/g
  tissue uptake at 2 h: 0.88 %ID/g
[2]; lung, read-out: Lung uptake
  tissue uptake at 0.5 h: 0.93 %ID/g
  tissue uptake at 1 h: 0.74 %ID/g
  tissue uptake at 2 h: 0.49 %ID/g
[2]; [9]
  tissue uptake at 0.5 h: 0.53 %ID/g
  tissue uptake at 1 h: 0.31 %ID/g
  tissue uptake at 2 h: 0.2 %ID/g
[2]; [10]
  tissue to tissue ratio at 0.5 h: 0.05 ± 0.004
  tissue to tissue ratio at 1 h: 0.05 ± 0.002
  tissue to tissue ratio at 2 h: 0.03 ± 0.004
[2]; [12]
  tissue to tissue ratio at 0.5 h: 1.15 ± 0.09
  tissue to tissue ratio at 1 h: 1.23 ± 0.05
  tissue to tissue ratio at 2 h: 0.78 ± 0.16
[2]; tumor / muscle, read-out: Tumor-to-muscle (T/M) uptake ratio
  tissue to tissue ratio at 2 h: 5.5 ± 3.65
[3]; 30 min
  Tumor-to-muscle (T/M) uptake ratio: 3.87±1.97
  Kidneys uptake: 37.47 ± 2.57 % ID/g
  Liver uptake: 1.52 ± 0.11 % ID/g
  Tumor uptake: 1.75±0.05 % ID/g
[3]; 60 min
  Tumor-to-muscle (T/M) uptake ratio: 6.20±2.67
  Kidneys uptake: 35.40 ± 0.92 % ID/g
  Liver uptake: 1.33 ± 0.06 % ID/g
  Tumor uptake: 1.64±0.03 % ID/g
[3]; 120 min
  Kidneys uptake: 25.70 ± 3.35 % ID/g
  Liver uptake: 0.88 ± 0.20 % ID/g
  Tumor uptake: 0.66±0.06 % ID/g
